From patent publication US20240279202A1 (NURIX THERAPEUTICS, INC., priority 2021, published 2024)
Structures can show the parent of a compound that is named as a salt.

Target: T1, ITK (Mus musculus, UniProt Q03526)
T1 construct: mice were sacrificed and splenocytes were isolated and used to prepare protein lysates; from tissue; host or cells: mouse splenocytes (spleen) after oral dosing
T1 sequence (Q03526 1-625): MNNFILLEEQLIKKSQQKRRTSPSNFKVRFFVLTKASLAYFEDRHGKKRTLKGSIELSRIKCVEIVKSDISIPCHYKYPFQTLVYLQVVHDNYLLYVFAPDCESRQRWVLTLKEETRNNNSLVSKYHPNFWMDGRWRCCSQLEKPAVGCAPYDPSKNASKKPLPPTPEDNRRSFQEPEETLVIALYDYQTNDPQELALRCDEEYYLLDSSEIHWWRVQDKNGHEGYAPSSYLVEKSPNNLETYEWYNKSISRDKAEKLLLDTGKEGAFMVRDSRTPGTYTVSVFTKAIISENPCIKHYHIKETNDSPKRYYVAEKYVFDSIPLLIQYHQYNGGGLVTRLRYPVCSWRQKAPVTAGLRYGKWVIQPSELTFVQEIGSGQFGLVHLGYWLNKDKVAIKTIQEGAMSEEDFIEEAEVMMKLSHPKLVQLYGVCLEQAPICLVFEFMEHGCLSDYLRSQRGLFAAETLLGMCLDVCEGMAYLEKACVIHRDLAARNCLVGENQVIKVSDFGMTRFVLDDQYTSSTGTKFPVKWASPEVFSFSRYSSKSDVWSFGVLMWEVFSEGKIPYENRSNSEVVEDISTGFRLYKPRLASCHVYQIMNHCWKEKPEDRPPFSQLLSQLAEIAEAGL
Experiment: Mouse PD assay for ITK degradation (Western blot, splenocytes after oral administration)
Type: in vivo
Settings: for ITK degradation in vivo at 6 hours (FIG. 3A, FIG. 4A): oral; for ITK (%) 90 mpk PO, 6 h: percent ITK remaining in mouse splenocytes relative to vehicle
Experimental: Compounds 1, 3, 7, and 42 were formulated and administered at 90 mg/kg to mice by oral gavage (PO). Blood was collected at defined time points (after 1, 2, and 6 hours) after compounds administration to determine PK parameters. Concentration increased through 6 hours. Six hours later mice were sacrificed and splenocytes were isolated and used to prepare protein lysates. Total protein levels were determined in the lysates using the BCA assay according to standard methods. Equal amounts of protein were then analyzed by Western blot to determine the level of ITK expression in each sample. ITK band intensities were measured using Alpha View software and the percent of ITK remaining in each test animal was determined relative to the mean of ITK levels in vehicle control samples.
After 6 hours, splenocytes cells were harvested. ITK was evaluated by Western blotting.
Compounds 43, 4, 5, 10, 11, 12, 44, 14, 3, and 13 were administered to mice orally. After 6 hours, splenocytes cells were harvested. ITK was evaluated by Western blotting. Media was removed and cell pellets were lysed in 100 uL lysis buffer (RIPA buffer (Fisher, PI89901), cOmplete Mini EDTA-free protease inhibitor (Sigma 11836170001), Protease Inhibitor Cocktail (Sigma, P2714), Phosphatase Inhibitor Cocktail 2 and 3 (Sigma, P5726 and P0044), Benzonase (Sigma, E1014)). Cells were lysed overnight at −20° C. Following thaw, cells were centrifuged for 10 min at 13000 rpm, then transferred to new tube. Protein levels were determined by BCA Assay performed according to manufacturer's protocol (EMID Millipore, cat. no. 71285-3). Samples were combined with (4×) LDS Sample Buffer and (10×) Reducing Agent and H2O to equally load 20 ug protein per lane of a 26-well NuPAGE 4-12% Bis-Tris protein gel (1.0 mm, Thermo cat. no. NP0326). Samples were separated by running gels at constant 150 V in NuPAGE MES SDS Running Buffer. Following electrophoresis, proteins were transferred to nitrocellulose membranes using an iBlot Gel Transfer Device and iBlot Gel Transfer Stacks (Thermo cat. no. IB21001 and IB301001) and transfer method P3 (20V for 7 min). Membranes were blocked for 1 hr in 5% milk solution (TBS (0.2% Tween-20)). Following blocking, membranes were incubated with primary antibody (1:1000 CST ITK (2F12) #2380) overnight at 4° C. with gentle shaking. Blots were washed 2× in TBS (0.2% Tween-20), 30 min per wash. Following washes, blots were incubated in secondary HRP-conjugated antibody (Promega anti-Mouse IgG (H+L) HRP cat. no. W4021), 1:5000 in 5% milk solution (TBS (0.2% Tween-20)), for 1 hr at room temperature with gentle shaking. Blots were washed 2× in TBS (0.2% Tween-20), 30 min per wash. Blots were incubated with 1:1 mix of ECL reagents 1 & 2 (Amersham ECL Western Blotting Detection Reagent, cat. no. RPN2106) for 2 min at room temperature. Bands were visualized using a Protein Simple imager. Blots were then re-probed with a combination of anti-actin antibody (Sigma Monoclonal Mouse Anti-3-Actin (clone AC-15), cat. no. A5441) and secondary H1RP-conjugated antibody (Promega anti-Mouse IgG (H+L) HRP, cat. no. W4021) and similar steps were taken for incubation, wash, detection and visualization steps as above. The data was analyzed using Alpha View software. The densitometric reading for each sample band was normalized to that of the corresponding actin band per lane. Approximate % ITK remaining per sample was calculated as follows: […]
Once % ITK remaining has been calculated for each sample, groups are averaged together to show an means % ITK normalized to actin and relative to control.
Compounds 16, 17, and 18 were administered to mice orally. After 6 hours or 24 hours, splenocytes cells were harvested. ITK was evaluated by Western blotting. Plasma concentrations were determined by LC/MS/MS. Plasma samples were protein precipitated by addition of 100 μl of acetonitrile containing 50 ng/ml of internal standard. The resulting mixture was vortexed and centrifuged at 4000 RPM for 5 minutes. […]

[1] = mice, splenocytes, Western blot, 6 hours

Compound	ITK degradation in vivo at 6 hours (FIG. 3A, FIG. 4A) [1]	ITK (%) 90 mpk PO, 6 h	ITK degradation in vivo at 6 hours (FIG. 2) (mice, 90 mg/kg PO, splenocytes, Western blot, 6 hours)
C[C@@H](C(=O)N(C)c1ccc2cc(-c3n[nH]c4c3CCC(C)(C)C4)[nH]c2c1)N1CCN(C[C@H]2CCN(c3ccc4c(c3)n(C)c(=O)n4C3CCC(=O)NC3=O)C2)CC1 (stereo partly drawn) [Compound 5, (2S)—N-(2-(6,6-dimethyl-4,5,6,7-tetrahydro-1H-indazol-3-yl)-1H-indol-6-yl)-2-(4-(((3R)-1-(1-(2,6-dioxopiperidin-3-yl)-3-methyl-2-oxo-2,3-dihydro-1H-benzo[d]imidazol-5-yl)pyrrolidin-3-yl)methyl)piperazin-1-yl)-N-methylpropanamide]	degraded ITK in vivo	97%	–
C[C@@H](C(=O)N(C)c1ccc2cc(-c3n[nH]c4c3CCC(C)(C)C4)[nH]c2c1)N1CCN(CC2CCN(c3ccc4c(c3)n(C)c(=O)n4C3CCC(=O)NC3=O)CC2)CC1 (stereo partly drawn) [Compound 6, (2S)—N-(2-(6,6-dimethyl-4,5,6,7-tetrahydro-1H-indazol-3-yl)-1H-indol-6-yl)-2-(4-((1-(1-(2,6-dioxopiperidin-3-yl)-3-methyl-2-oxo-2,3-dihydro-1H-benzo[d]imidazol-5-yl)piperidin-4-yl)methyl)piperazin-1-yl)-N-methylpropanamide]	–	105%	–
C[C@@H](C(=O)N(C)c1ccc2cc(-c3n[nH]c4c3CCC(C)(C)C4)[nH]c2c1)N1CCN(CC2CCN(c3ccc(C(=O)NC4CCC(=O)NC4=O)nc3)CC2)CC1 (stereo partly drawn) [Compound 7, 5-(4-((4-((S)-1-((2-(6,6-dimethyl-4,5,6,7-tetrahydro-1H-indazol-3-yl)-1H-indol-6-yl)(methyl)amino)-1-oxopropan-2-yl)piperazin-1-yl)methyl)piperidin-1-yl)-N-(2,6-dioxopiperidin-3-yl)picolinamide]	–	100%	degraded ITK in vivo
C[C@@H](C(=O)N(C)c1ccc2cc(-c3n[nH]c4c3CCC(C)(C)C4)[nH]c2c1)N1CCN(CC2CCN(c3ccc(C4CCC(=O)NC4=O)cn3)CC2)CC1 (stereo partly drawn) [Compound 10, (2S)—N-(2-(6,6-dimethyl-4,5,6,7-tetrahydro-1H-indazol-3-yl)-1H-indol-6-yl)-2(4-((1-(5-(2,6-dioxopiperidin-3-yl)pyridin-2-yl)piperidin-4-yl)methyl)piperazin-1-yl)-N-methylpropanamide]	degraded ITK in vivo	11%	–
C[C@@H](C(=O)N(C)c1ccc2cc(-c3n[nH]c4c3CCC(C)(C)C4)[nH]c2c1)N1CCN(CC2CCN(c3ccc(N4CCC(=O)NC4=O)cn3)CC2)CC1 [Compound 11, (S)—N-(2-(6,6-dimethyl-4,5,6,7-tetrahydro-1H-indazol-3-yl)-1H-indol-6-yl)-2-(4-((1-(5-(2,4-dioxotetrahydropyrimidin-1(2H)-yl)pyridin-2-yl)piperidin-4-yl)methyl)piperazin-1-yl)-N-methylpropanamide]	degraded ITK in vivo	116%	–
C[C@@H](C(=O)N(C)c1ccc2cc(-c3n[nH]c4c3CCC(C)(C)C4)[nH]c2c1)N1CCN(C[C@H]2CCN(c3ccc4c(c3)CN(C3CCC(=O)NC3=O)C4=O)C2)CC1 (stereo partly drawn) [Compound 12, (2S)—N-(2-(6,6-dimethyl-4,5,6,7-tetrahydro-1H-indazol-3-yl)-1H-indol-6-yl)-2-(4-(((3R)-1-(2-(2,6-dioxopiperidin-3-yl)-1-oxoisoindolin-5-yl)pyrrolidin-3-yl)methyl)piperazin-1-yl)-N-methylpropanamide]	degraded ITK in vivo	82%	–

More lines, now with the values ahead:

ITK degradation in vivo at 6 hours (FIG. 3A, FIG. 4A) [1]	ITK (%) 90 mpk PO, 6 h	ITK degradation in vivo at 6 hours (FIG. 2) (mice, 90 mg/kg PO, splenocytes, Western blot, 6 hours)	Compound
–	49.3%	–	C[C@@H](C(=O)N(C)c1ccc2cc(-c3n[nH]c4c3C[C@@H]3C(F)(F)[C@]3(C)C4)[nH]c2c1)N1CCN(C[C@H]2CCN(c3ccc4c(c3)C(=O)N(C3CCC(=O)NC3=O)C4=O)C2)CC1 (stereo partly drawn) [Compound 9, (2S)—N-(2-((4aS,5aR)-5,5-difluoro-5a-methyl-1,4,4a,5,5a,6-hexahydrocyclopropa[f]indazol-3-yl)-1H-indol-6-yl)-2-(4-(((3R)-1-(2-(2,6-dioxopiperidin-3-yl)-1,3-dioxoisoindolin-5-yl)pyrrolidin-3-yl)methyl)piperazin-1-yl)-N-methylpropanamide]
degraded ITK in vivo	15%	–	Cn1c(=O)n(C2CCC(=O)NC2=O)c2cccc(N3CCC(CN4CCC5(CC4)CCN(c4ccc6cc(-c7n[nH]c8c7CCC(C)(C)C8)[nH]c6c4)C5=O)CC3)c21 (centres unmarked) [Compound 13, 3-(4-(4-((2-(2-(6,6-dimethyl-4,5,6,7-tetrahydro-1H-indazol-3-yl)-1H-indol-6-yl)-1-oxo-2,8-diazaspiro[4.5]decan-8-yl)methyl)piperidin-1-yl)-3-methyl-2-oxo-2,3-dihydro-1H-benzo[d]imidazol-1-yl)piperidine-2,6-dione]
degraded ITK in vivo	47%	–	Cn1c(=O)n(C2CCC(=O)NC2=O)c2ccc(N3CCC(CN4CCC5(CC4)CCN(c4ccc6cc(-c7n[nH]c8c7CCC(C)(C)C8)[nH]c6c4)C5=O)CC3)cc21 (centres unmarked) [Compound 14, 3-(5-(4-((2-(2-(6,6-dimethyl-4,5,6,7-tetrahydro-1H-indazol-3-yl)-1H-indol-6-yl)-1-oxo-2,8-diazaspiro[4.5]decan-8-yl)methyl)piperidin-1-yl)-3-methyl-2-oxo-2,3-dihydro-1H-benzo[d]imidazol-1-yl)piperidine-2,6-dione]
–	18.3%	–	C[C@@]12Cc3[nH]nc(-c4cc5ccc(N6CCC7(CCN(Cc8ccc9c(c8)C(=O)N(C8CCC(=O)NC8=O)C9=O)CC7)C6=O)cc5[nH]4)c3C[C@@H]1C2(F)F (stereo partly drawn) [Compound 15, 5-((2-(2-((4aS,5aR)-5,5-difluoro-5a-methyl-1,4,4a,5,5a,6-hexahydrocyclopropa[f]indazol-3-yl)-1H-indol-6-yl)-1-oxo-2,8-diazaspiro[4.5]decan-8-yl)methyl)-2-(2,6-dioxopiperidin-3-yl)isoindoline-1,3-dione hydrochloride]
